Laboratory results: article PMC6085350, “Small molecule inhibitors of RAS-effector protein interactions derived using an intracellular antibody fragment” (Nature Communications, 2018)
Several values for one entry are separate records, joined by “and”; a condition that tells them apart may be missing. Equal entries are not always repeated.

Molecular target: T1, KRAS^G12V-GppNHp (Homo sapiens, UniProt P01116, G12V)
T1 construct: made in house; host or cells: E. coli (pGEX-2T; strain named only for the HRAS plasmids)
Experiment: waterLOGSY NMR binding
Settings: not given
Experimental: The waterLOGSY NMR method[35] was used to measure RAS ligand interaction. WaterLOGSY experiments were conducted at a ^1H frequency of 600 MHz using a Bruker Avance spectrometer equipped with a BBI probe. All experiments were conducted at 298 K, 3 mm diameter NMR tubes with a sample final volume of 200 µl was used in all experiments. Solutions were buffered using an H2O 10 mM PBS, 5 mM MgCl2 buffer corrected to pH 7.4. The sample preparation is exemplified as follows, the compound (10 µl of a […] solution in DMSO-d6) was added to an eppendorf before sequential addition of the H2O PBS buffer (163.6 µl), D2O (20 µl), and protein (6.4 µl, 311.8 µM). The resulting solution was spun to ensure full mixing and transferred to a 3 mm NMR tube before running the experiment. For a competition experiment using Y6-scFv or VH, the preparation was carried out in a similar manner; the compound (10 µl of a 10 mM solution in DMSO-d6) was added to an eppendorf before sequential addition of the H2O PBS buffer (146.4 µl), D2O (20 µl), protein (6.4 µl, 311.8 µM) and Y6-ScFv (17.2 µl, 116.6 µM) with a ratio of 5.5:1:1. The resulting solution was spun and transferred to a 3 mm NMR tube before the run. Negative controls (compound alone, without the protein) were prepared in a similar manner, in order to obtain an end volume of 200 μl.
Supplementary Figure 3: Abd-2 WaterLOGSY NMR with and without anti RAS-scFV Abd-2 was analyzed by waterLOGSY. […]
binding of Abd-2 to KRAS -GppNHp (upper trace, in green) but poor binding to KRAS-GDP (middle trace, in red). The proton NMR spectrum of Abd-2 in the absence of protein is […]
shown in the lower trace. Panel b, WaterLOGSY of Abd-2 with KRAS -GppNHp in the presence or absence of scFv competitor respectively top (no binding of Abd-2 to the […]
KRAS -GppNHp + scFv complex) and middle spectra (binding to KRAS -GppNHp without scFv) in purple and red respectively. The lower spectra is the proton NMR of Abd -2 in the absence of protein. Results from panel b confirm the interference of binding by the […]
(1 picture or pasted object on this page, not shown here)
(§1) Supplementary Figure 6: Abd-7 Binding in WaterLOGSy and Kd calculations in CPMG WaterLOGSY and CPMG NMR orthogonal analysis of Abd-5 (panel a, b), Abd-6 (c, d), and Abd-7 (e, f) with GST-KRASG12V-GppNHp. For each waterLOGSY profile, the proton NMR spectrum of the compound is shown together the spectra of the compound after incubation with the KRAS (the NOE transfers occurs when the compounds displace those waters upon binding to the protein). The Kd of interaction of the compounds come from fitting a binding curve (right of panels b, d, f) of a CPMG titration (shown on the left of panels b, d, f). The calculated Kd is shown for each compound.
(MW), Kd, Solubility and ligand efficiency (LE). […]

binding to KRAS^G12V-GppNHp (waterLOGSY)	Compound
preferential binding	O=C(NCC1COc2ccccc2O1)c1ccco1 (stereo not shown) [Abd-2]
confirmed	COc1cccc(-c2cccc3c2OC(CNC(=O)c2ccc(OCCN(C)C)cc2)CO3)n1 (stereo not shown) [Abd-5]
confirmed	COc1nc(-c2cccc3c2O[C@H](CNC(=O)C2CCOCC2)CO3)ccc1Nc1cccc(CN(C)C)c1 [Abd-6]
confirmed	COc1nc(-c2cccc3c2OCCO3)ccc1Nc1ccc(CN(C)C)cc1 [Abd-7]

Molecular target: T2, GST-KRASG12V-GppNHp (Homo sapiens, UniProt P01116, G12V)
T2 construct: made in house; host or cells: E. coli (pGEX-2T; strain named only for the HRAS plasmids)
Experiment: 1H CPMG NMR protein titration for Kd
Format: binding
Settings: not given
Experimental: Typical experimental parameters for Carr–Purcell-Meiboom-Gill (CPMG) NMR spectroscopy were the following: total echo time, 40 ms; relaxation delay, 2 s; and number of transients, […][53]. The PROJECT-CPMG sequence (90°x-[Ƭ-180°y-Ƭ- 90°y-Ƭ-180°y-Ƭ]n-acq) was applied. Water suppression was achieved by pre-saturation. Prior to Fourier transformation, the data were multiplied with an exponential function with 3-Hz line broadening. The CPMG experiments were conducted at a ^1H frequency of 700 MHz using a Bruker Avance with 5 mm inverse TCI 1 H/13 C/15 N cryo-probe. All experiments were conducted at 298 K and lapsed 128 scans. Furthermore, 3 mm diameter NMR tubes with a sample volume of 200 µl were used in all experiments. Solutions were buffered using a D2O PBS buffer corrected to pH 7.4. The sample preparation is exemplified as follow: with 5 µM of protein (PBS pH 7.4, 5 mM MgCl2), the compound (1.1 µl of a 10 mM (55 uM) solution in DMSO-d6) was added to an eppendorf before sequential addition of the D2O 10 mM PBS, 5 mM MgCl2 buffer adjusted to pH 7.4 (194.0 µl) and protein (4.9 µl, 205 µM, the protein is in an H2O-based buffer for stability reason). The resulting solution was vortexed to be fully mixed and transferred to a 3 mm NMR tube before the run. Negative controls (compound alone, without the protein) were prepared in a similar manner, in order to obtain an end volume of 200 µl. CPMG protein titration experiments were carried out at a fixed compound concentration and a variable protein concentration. It was estimated that 55 μM solution of the compound was optimum for a good CPMG; protein was titrate increasingly from 0 µM until the signal of the compound was undetected in the proton NMR. The integrations of the protons acquired were compared to the reference (compound alone, 0 µM of protein) in order to obtain a percentage of decrease for each concentration of protein. Three different proton signals were used and a mean was calculated for each run. Each protein concentration was run in triplicate and a mean was calculated for each concentration. Where error bars are presented, they correspond to mean values ± SD of experimental repeats. Concentration and percentage of decrease were plotted and Kd fitting was run on the generated curve using Origin® with the following function: A*(1/(2*C))*((B + x + C)-sqrt(((B + x + C)^2)-(4*x*C))) where A is the maximum % of inhibition (i.e. 100), B is the Kd and C is the concentration of the compound which should not be fixed in the Origin® Equation due to potential variations in compound solubility.
as §1
(MW), Kd, Solubility and ligand efficiency (LE). Each experiment was repeated at least three times. Where error bars are presented, they correspond to mean values ± SD of experimental repeats (b, d and f).

ligand efficiency	Compound
~0.3	COc1cccc(-c2cccc3c2OC(CNC(=O)c2ccc(OCCN(C)C)cc2)CO3)n1 (stereo not shown) [Abd-5]
~0.3	COc1nc(-c2cccc3c2O[C@H](CNC(=O)C2CCOCC2)CO3)ccc1Nc1cccc(CN(C)C)c1 [Abd-6]
~0.3 and 0.34	COc1nc(-c2cccc3c2OCCO3)ccc1Nc1ccc(CN(C)C)cc1 [Abd-7]

Same assay, conditions: CPMG NMR titration, 55 μM compound; read-out: Kd (binding affinity)

Kd [nM]	Compound
220	COc1cccc(-c2cccc3c2OC(CNC(=O)c2ccc(OCCN(C)C)cc2)CO3)n1 (stereo not shown) [Abd-5]
38	COc1nc(-c2cccc3c2O[C@H](CNC(=O)C2CCOCC2)CO3)ccc1Nc1cccc(CN(C)C)c1 [Abd-6]
51	COc1nc(-c2cccc3c2OCCO3)ccc1Nc1ccc(CN(C)C)cc1 [Abd-7]
